These are literature values, as cited in paper PMC2063322, “Phase I trial and pharmacokinetics of the tubulin inhibitor 1069C85--a synthetic agent binding at the colchicine site designed to overcome multidrug resistance” (British Journal of Cancer, 1997).

For data set [1] the following is noted: 1995, cited from earlier work.
Details of data set [2]: method as in van Asperen et al (1996). The settings on record: ref van Asperen et al (1996); cited from earlier work.

Like-named read-outs stand apart in the source and are kept apart here.

`CCOC(=O)Nc1cc2c(c(N)n1)N=C(c1ccccc1)[C@H](C)N2` [CI-980]: the dose limiting toxicity entry in data set [1] (24 h-infusion schedule, ataxia, confusion and coma, ref Sklarin et al) is recorded as “dose limiting central neurotoxicity”; in data set [1] (72 h-infusion, ref Rowinsky et al), “dose limiting myelosuppression”.
In the case of `CC[C@]1(O)C[C@@H]2CN(CCc3c([nH]c4ccccc34)[C@@](C(=O)OC)(c3cc4c(cc3OC)N(C)[C@H]3[C@@](O)(C(=O)OC)[C@H](OC(C)=O)[C@]5(CC)C=CCN6CC[C@]43[C@@H]65)C2)C1` [vinblastine], in data set [2], the “accumulation of drug in the brains of P-glycoprotein-deficient versus wild-type mice” value was “substantially greater accumulation”.
